Measurements taken from the supplement of paper PMC10307832.

Assays:
Experiment in all cases: relative viability (nuclei count vs DMSO), 5 days (fraction); higher = more cells survive
[1] = compound: C(C(=O)C(=O)O)Br [Bromopyruvate] + CS(=O)(=O)CCNCc1ccc(-c2ccc3ncnc(Nc4ccc(OCc5cccc(F)c5)c(Cl)c4)c3c2)o1 [Lapatinib] (partner 2 µM)
Method in brief: (§1)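 Relative viability equals treated-well nuclei counts divided by vehicle-well nuclei counts. Counts came from 4× images of lung cancer cell lines grown in 1536-well plates for 5 days after pin-tool dosing on the day after seeding. Dosing used one drug alone or a fixed anchor-drug dose plus five library-drug doses (not always all listed) in √10 steps, and values are medians of duplicate plates.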

[2] = compound: CC(O)(CS(=O)(=O)c1ccc(F)cc1)C(=O)Nc1ccc(C#N)c(C(F)(F)F)c1 [Bicalutamide] + Cc1cc(Nc2cc(N3CCN(C)CC3)nc(Sc3ccc(NC(=O)C4CC4)cc3)n2)n[nH]1 [Tozasertib] (partner 0.1 µM)
Method in brief: as §1

[3] = compound: CC(O)(CS(=O)(=O)c1ccc(F)cc1)C(=O)Nc1ccc(C#N)c(C(F)(F)F)c1 [Bicalutamide] + Nc1ncn([C@H]2C[C@H](O)[C@@H](CO)O2)c(=O)n1 [Decitabine] (partner 2 µM)
Method in brief: as §1

Bromopyruvate + Olaparib = compound: C(C(=O)C(=O)O)Br [Bromopyruvate] + O=C(c1cc(Cc2n[nH]c(=O)c3ccccc23)ccc1F)N1CCN(C(=O)C2CC2)CC1 [Olaparib] (partner 8 µM)
Method in brief: as §1

SW 1573
relative viability ([1]; first compound 1 µM): 1.11 | relative viability ([1]; first compound 3.162 µM): 1.03 | relative viability ([1]; first compound 10 µM): 1.09 | relative viability ([1]; first compound 31.62 µM): 1.05 | relative viability ([1]; first compound 100 µM): 0.904 | relative viability ([2]; first compound 0.08 µM): 0.205 | relative viability ([2]; first compound 0.8 µM): 0.231 | relative viability ([2]; first compound 2.53 µM): 0.135 | relative viability ([3]; first compound 0.08 µM): 0.664 | relative viability ([3]; first compound 0.253 µM): 0.457 | relative viability ([3]; first compound 0.8 µM): 0.659 | relative viability ([3]; first compound 2.53 µM): 0.441 | relative viability (Bromopyruvate + Olaparib; first compound 1 µM): 0.555 | relative viability (Bromopyruvate + Olaparib; first compound 3.162 µM): 0.469 | relative viability (Bromopyruvate + Olaparib; first compound 10 µM): 0.475 | relative viability (Bromopyruvate + Olaparib; first compound 31.62 µM): 0.358 | relative viability (Bromopyruvate + Olaparib; first compound 100 µM): 0.0623
